Assay results: patent publication US10167283B2, “β-lactamase inhibitors and uses thereof” (priority 2015, dated 2019)
Structures can show the parent of a compound that is named as a salt. Where two headings read alike, the source gives them in different places.

How the values were obtained:
Type in all cases: cell-based
[1] = system: Escherichia coli BAA-2452 (NDM-1); test: In vitro antibacterial activity, agar dilution MIC
Source text: (§1) Experimental strains: all experimental standard bacterial strains for enzyme production were purchased from ATCC, and the clinically separated CRE strain was purchased from Southwest Hospital of the Third Military Medical University.
(§2) Experimental Method: Agar dilution method, referring to M100-S23: Performance Standards for Antimicrobial Susceptibility Testing: Twenty-Third Informational Supplement (Clinical And Laboratory Standards Institute, 2013). Minimal inhibitory concentration (MIC, μg/mL) was calculated.

[2] = system: Klebsiella pneumoniae BAA-2524 (OXA-48); test: In vitro antibacterial activity, agar dilution MIC; details: Klebsiella pneumoniae, BAA2524
Source text: as §1, §2

[3] = system: Enterobacter cloacae BAA-2341 (KPC); test: In vitro antibacterial activity, agar dilution MIC; details: Enterobacter cloacae, BAA2341
Source text: as §1, §2

[4] = system: Enterobacter hormaechei BAA-2082 (KPC); test: In vitro antibacterial activity, agar dilution MIC; details: Enterobacter hormaechei, BAA2082
Source text: as §1, §2

[5] = system: Escherichia coli BAA-2523 (OXA-48); test: In vitro antibacterial activity, agar dilution MIC
Source text: as §1, §2

[6] = system: Klebsiella pneumoniae BAA-1900 (KPC); test: In vitro antibacterial activity, agar dilution MIC
Source text: as §1, §2

[7] = system: Escherichia coli BAA-196 (TEM-10); test: In vitro antibacterial activity, agar dilution MIC
Source text: as §1, §2

[8] = system: Klebsiella pneumoniae 7484kpn-631 (IMP, ESBLs); test: In vitro antibacterial activity on clinically separated CRE strain, agar dilution MIC; details: first Table 4, 7484kpn-631 Klebsiella pneumoniae
Source text: as §1, §2

[9] = system: Enterobacter cloacae 7513ecl-314 (AmpC); test: as above; details: first Table 4, 7513ecl-314 Enterobacter cloacae
Source text: as §1, §2

[10] = system: Klebsiella pneumoniae 7463kpn-610 (ESBLs); test: as above; details: first Table 4, 7463kpn-610 Klebsiella pneumoniae
Source text: as §1, §2

[11] = system: Klebsiella pneumoniae BAA-2146 (NDM-1); test: In vitro antibacterial activity, agar dilution MIC
Source text: as §1, §2

[12] = system: Klebsiella oxytoca ATCC-51983 (SHV-5); test: In vitro antibacterial activity, agar dilution MIC; details: Klebsiella oxytoca, ATCC51983
Source text: as §1, §2

[13] = BAA2452, first Table 4, BAA-2452 Escherichia coli, NDM-1, read-out: MIC
[14] = BAA2146, first Table 4, BAA-2146 Klebsiella pneumoniae, NDM-1, read-out: MIC
[15] = BAA2523, first Table 4, BAA-2523 Escherichia coli, OXA-48, read-out: MIC
[16] = BAA1900, first Table 4, BAA-1900 Klebsiella pneumoniae, KPC, read-out: MIC
[17] = BAA196, first Table 4, BAA-196 Escherichia coli, TEM-10, read-out: MIC

| MIC [8] [µg/mL] | MIC [9] [µg/mL] | MIC [10] [µg/mL] | MIC [1, 13] [µg/mL] | MIC [11, 14] [µg/mL] | MIC [5, 15] [µg/mL] | MIC [6, 16] [µg/mL] | MIC [7, 17] [µg/mL] | SMILES | MIC ([1]; BAA2452) [µg/mL] | MIC [2] [µg/mL] | MIC [3] [µg/mL] | MIC [4] [µg/mL] | MIC ([5]; BAA2523) [µg/mL] | MIC ([6]; BAA1900) [µg/mL] | MIC ([7]; BAA196) [µg/mL] | MIC [12] [µg/mL] | MIC ([11]; BAA2146) [µg/mL] |
| --- | --- | --- | --- | --- | --- | --- | --- | --- | --- | --- | --- | --- | --- | --- | --- | --- | --- |
|  |  |  |  |  |  |  |  | CCN1CC2(CC(NC(=O)[C@@H]3CC[C@@H]4CN3C(=O)N4OS(=O)(=O)O)C2)C1 [Comp. 7 sodium salt, sodium (2S,5R)-2-((2-ethyl-2-azaspiro[3.3]heptan-6-yl)carbamoyl)-7-oxo-1,6-diazabicyclo[3.2.1]octan-6-yl sulfate] | 4 | 8 | 8 | 8 | 4 | 8 | 8 |  |  |
| 2 | 2 | 2 | 4 | 2 | 4 | 4 | 4 | O=C(NC1CC2(CNC2)C1)[C@H]1CC[C@@H]2CN1C(=O)N2OS(=O)(=O)O [Compound 2-2, (2R,5R)-2-((2-azaspiro[3.3]heptan-6-yl)carbamoyl)-7-oxo-1,6-diazabicyclo[3.2.1]octan-6-yl hydrogen sulfate] |  |  |  |  |  |  |  |  |  |
| 4 | 4 | 8 | 8 | 16 | 8 | 8 | 8 | CN1CC2(CC(NC(=O)[C@H]3CC[C@@H]4CN3C(=O)N4OS(=O)(=O)O)C2)C1 [Compound 6-2, (2R,5R)-2-((2-methyl-2-azaspiro[3,3]heptan-6-yl)carbamoyl)-7-oxo-1,6-diazabicyclo[3,2,1]octan-6-yl hydrogen sulfate] |  |  |  |  |  |  |  |  |  |
|  |  |  |  |  |  |  |  | O=C(NC1CC2(C1)CN(C1CC1)C2)[C@@H]1CC[C@@H]2CN1C(=O)N2OS(=O)(=O)O [Compound 13, (2S,5R)-2-(2-cyclopropyl-2-azaspiro[3.3]heptan-6-ylcarbamoyl)-7-oxo-1,6-diazabicyclo[3.2.1]octan-6-yl hydrogen sulfate] | 4 | 4 |  | 16 | 4 | 8 | 16 | 8 |  |
|  |  |  |  |  |  |  |  | O=C(NC1CC2(C1)CN(CC1CC1)C2)[C@@H]1CC[C@@H]2CN1C(=O)N2OS(=O)(=O)O [Compound 14, sodium (2S,5R)-2-((2-(cyclopropylmethyl)-2-azaspiro[3.3]heptan-6-yl)carbamoyl)-7-oxo-1,6-diazabicyclo[3.2.1]octan-6-yl sulfate] | 2 | 4 | 8 | 8 | 2 | 4 | 8 | 8 | 8 |
